Measurements reported in patent publication US20260174778A1, “SULFONAMIDE COMPOUND, AND PREPARATION METHOD THEREFOR AND USE THEREOF” (SHANGHAI HENLIUS BIOTECH, INC., priority 2023, published 2026).

Assays:
[1] = system: ER-positive breast cancer; conditions: preclinical studies, in vivo and in vitro; cited from earlier work
[2] = biological target: T1, KAT7 (Homo sapiens, UniProt O95251); assay: Inhibition of human KAT enzymes, radioisotope method: KAT7; format: biochemical; conditions: for Ki: KAT7 (full-length), radioisotope method; for KAT7/ KAT6A / KAT7/ KAT6B: selectivity, ratio of Ki
T1 construct: purchased ACTIVE MOTIF 31889
Excerpt: (§1) Test Example 2: Selective Inhibitory Effects of Test Compounds on Human KAT6 Enzymes (Radioisotope Method)
(§2) • 1. KAT6A (ACTIVE MOTIF, Cat. No. 81223) • 2. KAT5 (BPS, Cat. No. 79422) • 3. KAT7 (ACTIVE MOTIF, Cat. No. 31889) • 4. KAT6B (ACTIVE MOTIF, Cat. No. 81224) • 5. Acetyl coenzyme A, [Acetyl-^3H, 250 μCi (9.25 MBq](PEIRKIN4 ELMER, Cat. No. NET290250UC) • 6. Acetyl coenzyme A (CAYMVAN, Cat. No. 16160) • 7. 384-well Flashplate (Perkin Elmer, Cat. No. SMP410A001PK) • 8. Garcinol (MCE, Cat. No. HY-107569) • 9. Automatic microplate pipetting system (Precision, PRC384U, BioTek) • 10. Ultrasonic nanoliter liquid handling system (Echo 650 Liquid Handler, Echo 650, Labcyte) • 11. Centrifuge (Avanti J-15R, Beckman Coulter) • 12. Liquid scintillation counter (Microplate Counter, Microbeta2, Perkin Elmer)
(§3) • 1. For KAT6A and KAT7, a 1× assay buffer was prepared as follows: 10 mM Tris-HCl pH 8.0, 0.01% Tween-20, and 1 mM DTT; for KAT6B and KAT5, a 1× assay buffer was prepared as follows: 50 mM Tris-HCl pH 8.0, 0.05% Tween-20, and 1 mM DTT. • 2. Compound preparation: For KAT6A, KAT6B, and KAT7, the final concentration of the compounds started at 1 μM, followed by a 5-fold serial dilution across a total of 7 concentration gradients; for KAT5, the final concentration of the compounds started at 10 μM, followed by a 5-fold serial dilution across a total of 7 concentration gradients. • 3. Substrate reaction solution preparation: The mixed substrates of H4 peptide and [3H]acetyl coenzyme A at final concentrations were prepared using the respective 1× assay buffers, as shown in Table 4.
(§4) • 1. The enzyme solution was transferred to 384-well reaction plates at 10 μL/well. For each negative control well, 10 μL of the 1× assay buffer was transferred. The plates were then centrifuged at 1000 RPM for 1 min and incubated at room temperature for 15 min. • 2. The substrate reaction solution was added at 10 μL/well, and the plates were centrifuged at 1000 RPM for 1 min to start the reaction. • 3. The samples for KAT6A, KAT6B, KAT7, KAT8, and KAT5 were then incubated at room temperature for 60 min, 120 min, 45 min, 60 min, and 120 min, respectively. • 4. Stop solution preparation: A stop solution was prepared by diluting 50 µM cold Ac-CoA in 1× buffer. • 5. The stop solution was added at 10 μL/well, and the plates were centrifuged at […] for 1 min to stop the reaction. • 6. The mixtures in the reaction plates were transferred at 25 μL/well to new plates (Streptavidin FlashPlate HTS PLUS, High Capacity, 384-well). • 7. The plates were incubated at room temperature for at least 60 min and then • 8. read using MicroBeta2.
(§5) Raw data were obtained in EXCEL, and the inhibition rates were calculated:
(§6) [formula] [formula] • Max signal: reaction signal from enzyme and substrate; • Sample signal: signal from sample; • Min signal: signal from substrate only (negative control).
(§7) The inhibition rate data were imported into XLFit Excel, and IC50 values were obtained using formula (2):
(§8) [formula] [formula] • Top: value of the top plateau of the fitted regression curve; • Bottom: value of the bottom plateau of the fitted regression curve; • HillSlope: slope of the fitted regression curve.
(§9) The IC50 value was substituted into formula (3) to obtain the enzymatic activity inhibition constant Ki:
(§10) [formula] • [S]: substrate concentration; Km: Michaelis constant.

[3] = system: breast cancer cell line ZR-75-1; assay: Inhibition of proliferation of breast cancer cell line ZR-75-1 (CellTiter-Glo); format: cell-based; conditions: Homo sapiens, 240 h, proliferation of ZR-75-1 cells, 10 days of incubation, read-out: IC50 (KAT6A)
[4] = biological target: T2, KAT5 (Homo sapiens, UniProt Q92993); assay: Inhibition of human KAT enzymes, radioisotope method: KAT5; format: biochemical; conditions: for Ki: KAT5 (full-length), radioisotope method; for KAT5/ KAT6A / KAT5/ KAT6B: selectivity, ratio of Ki
T2 construct: purchased BPS 79422
Excerpt: as §1, §2, §3, §4, §5, §6, §7, §8, §9, §10

[5] = biological target: T3, KAT6A (Homo sapiens, UniProt Q92794); assay: Inhibition of human KAT enzymes, radioisotope method: KAT6A; format: biochemical; conditions: KAT6A (488-778)
T3 construct: purchased ACTIVE MOTIF 81223
Excerpt: as §1, §2, §3, §4, §5, §6, §7, §8, §9, §10

[6] = biological target: T4, KAT6B (Homo sapiens, UniProt Q8WYB5); assay: Inhibition of human KAT enzymes, radioisotope method: KAT6B; format: biochemical; conditions: KAT6B (718-1008)
T4 construct: purchased ACTIVE MOTIF 81224
Excerpt: as §1, §2, §3, §4, §5, §6, §7, §8, §9, §10

T1 sequence (O95251 whole entry): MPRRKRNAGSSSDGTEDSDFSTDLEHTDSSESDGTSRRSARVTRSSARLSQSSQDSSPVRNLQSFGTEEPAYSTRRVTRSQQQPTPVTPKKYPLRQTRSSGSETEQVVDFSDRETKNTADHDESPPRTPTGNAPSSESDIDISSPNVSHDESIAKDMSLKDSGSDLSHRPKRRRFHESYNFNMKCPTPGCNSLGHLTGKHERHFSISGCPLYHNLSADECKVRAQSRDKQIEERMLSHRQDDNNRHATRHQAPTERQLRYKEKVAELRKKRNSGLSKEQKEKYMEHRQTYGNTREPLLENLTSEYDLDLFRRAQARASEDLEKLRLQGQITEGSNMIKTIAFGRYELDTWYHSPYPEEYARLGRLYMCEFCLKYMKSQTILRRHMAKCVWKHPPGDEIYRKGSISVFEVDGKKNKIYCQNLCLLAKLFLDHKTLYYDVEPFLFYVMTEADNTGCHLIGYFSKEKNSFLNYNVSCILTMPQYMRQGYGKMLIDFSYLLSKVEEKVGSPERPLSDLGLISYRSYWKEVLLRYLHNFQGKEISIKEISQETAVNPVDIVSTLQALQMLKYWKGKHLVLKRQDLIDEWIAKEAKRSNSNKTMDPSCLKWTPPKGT
T2 sequence (Q92993 whole entry): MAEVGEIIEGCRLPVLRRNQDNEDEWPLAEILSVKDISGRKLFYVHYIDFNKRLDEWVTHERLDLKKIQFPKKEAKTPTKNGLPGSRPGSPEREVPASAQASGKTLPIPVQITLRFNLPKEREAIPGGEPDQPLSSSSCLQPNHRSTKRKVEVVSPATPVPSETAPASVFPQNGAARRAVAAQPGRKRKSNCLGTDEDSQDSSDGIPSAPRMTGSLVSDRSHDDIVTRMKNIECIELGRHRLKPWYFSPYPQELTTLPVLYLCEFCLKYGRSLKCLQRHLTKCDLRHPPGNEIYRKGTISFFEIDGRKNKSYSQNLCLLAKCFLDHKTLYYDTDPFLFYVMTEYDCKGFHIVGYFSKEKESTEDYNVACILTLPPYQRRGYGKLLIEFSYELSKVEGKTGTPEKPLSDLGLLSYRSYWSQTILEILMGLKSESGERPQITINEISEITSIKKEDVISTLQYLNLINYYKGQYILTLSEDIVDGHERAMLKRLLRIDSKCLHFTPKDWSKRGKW
T3 sequence (Q92794 whole entry): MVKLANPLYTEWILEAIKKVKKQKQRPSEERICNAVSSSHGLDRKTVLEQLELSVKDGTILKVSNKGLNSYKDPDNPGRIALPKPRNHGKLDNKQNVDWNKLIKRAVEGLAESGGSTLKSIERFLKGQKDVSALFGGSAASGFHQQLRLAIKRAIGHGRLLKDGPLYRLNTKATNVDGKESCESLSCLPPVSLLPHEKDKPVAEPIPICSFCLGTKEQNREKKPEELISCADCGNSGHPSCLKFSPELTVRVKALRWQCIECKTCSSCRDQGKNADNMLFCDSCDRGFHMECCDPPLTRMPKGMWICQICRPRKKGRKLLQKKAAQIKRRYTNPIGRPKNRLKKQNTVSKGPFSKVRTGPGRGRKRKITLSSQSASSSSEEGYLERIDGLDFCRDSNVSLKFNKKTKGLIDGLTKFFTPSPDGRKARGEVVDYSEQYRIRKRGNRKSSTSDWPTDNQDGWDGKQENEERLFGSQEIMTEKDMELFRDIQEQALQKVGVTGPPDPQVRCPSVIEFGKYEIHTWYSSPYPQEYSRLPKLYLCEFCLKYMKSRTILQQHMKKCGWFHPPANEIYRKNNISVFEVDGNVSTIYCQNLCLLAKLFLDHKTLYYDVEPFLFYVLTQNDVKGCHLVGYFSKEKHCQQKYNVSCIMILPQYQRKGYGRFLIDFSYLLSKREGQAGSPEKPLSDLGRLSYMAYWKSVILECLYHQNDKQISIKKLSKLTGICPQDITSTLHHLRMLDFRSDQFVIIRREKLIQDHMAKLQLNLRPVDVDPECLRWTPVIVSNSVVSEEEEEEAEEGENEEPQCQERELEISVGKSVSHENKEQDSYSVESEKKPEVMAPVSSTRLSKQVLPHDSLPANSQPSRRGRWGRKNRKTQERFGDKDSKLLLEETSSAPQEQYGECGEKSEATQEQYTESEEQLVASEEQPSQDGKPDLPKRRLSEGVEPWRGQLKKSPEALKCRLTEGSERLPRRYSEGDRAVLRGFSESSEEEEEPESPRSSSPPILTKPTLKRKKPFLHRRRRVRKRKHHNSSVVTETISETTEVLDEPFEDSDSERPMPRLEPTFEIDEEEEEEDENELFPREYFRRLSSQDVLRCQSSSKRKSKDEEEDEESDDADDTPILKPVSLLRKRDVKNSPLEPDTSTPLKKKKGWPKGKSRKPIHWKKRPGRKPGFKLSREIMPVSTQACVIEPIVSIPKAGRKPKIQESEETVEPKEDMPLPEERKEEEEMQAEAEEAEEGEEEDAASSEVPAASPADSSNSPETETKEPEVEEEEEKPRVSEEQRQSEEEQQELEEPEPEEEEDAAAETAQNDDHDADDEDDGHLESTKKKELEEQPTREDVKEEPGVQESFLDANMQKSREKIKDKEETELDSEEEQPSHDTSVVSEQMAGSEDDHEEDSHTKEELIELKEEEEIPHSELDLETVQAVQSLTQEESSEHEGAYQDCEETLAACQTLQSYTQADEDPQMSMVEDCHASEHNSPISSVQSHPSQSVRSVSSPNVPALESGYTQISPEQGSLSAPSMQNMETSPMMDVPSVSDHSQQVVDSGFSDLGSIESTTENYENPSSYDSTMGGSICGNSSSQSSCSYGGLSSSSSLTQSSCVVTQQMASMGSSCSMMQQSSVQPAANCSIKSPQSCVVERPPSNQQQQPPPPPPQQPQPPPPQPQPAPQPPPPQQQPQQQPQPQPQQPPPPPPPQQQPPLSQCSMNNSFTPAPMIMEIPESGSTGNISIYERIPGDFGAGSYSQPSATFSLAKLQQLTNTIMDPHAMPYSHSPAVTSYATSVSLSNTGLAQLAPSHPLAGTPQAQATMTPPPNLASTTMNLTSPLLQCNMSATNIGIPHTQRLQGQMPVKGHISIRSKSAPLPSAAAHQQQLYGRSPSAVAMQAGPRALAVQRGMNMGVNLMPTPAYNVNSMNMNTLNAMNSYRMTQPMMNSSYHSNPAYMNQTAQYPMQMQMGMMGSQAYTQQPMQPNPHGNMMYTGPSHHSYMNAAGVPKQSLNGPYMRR

Ki [2] | KAT7/ KAT6A [2] | KAT7/ KAT6B [2] | IC50 [3] | Ki [4] | KAT5/ KAT6A [4] | KAT5/ KAT6B [4] | Ki [5] | Ki [6] | Compound | anti-tumor activity against ER-positive breast cancer [1]
– | – | – | – | – | – | – | – | – | COc1cccc(OC)c1S(=O)(=O)Nc1noc2cc(Cn3cccn3)cc(OC)c12 [CTx-648] | excellent in vivo and in vitro anti-tumor activity
64.5 nM | 223 | 40 | 0.5 to 2 nM | 1150 nM | 3967 | 719 | 0.29 nM | 1.6 nM | COc1ccc2c(c1S(=O)(=O)Nc1noc3cc(Cn4cccn4)c(F)c(OC)c13)OCCN2C(C)=O [Compound 110, N-(6-((1H-Pyrazol-1-yl)methyl)-5-fluoro-4-methoxybenzo[d]isoxazol-3-yl)-4-acetyl-7-methoxy-3,4-dihydro-2H-benzo[b][1,4]oxazine-8-sulfonamide] | –
96 nM | 343 | 107 | 2 to 10 nM | 577 nM | 2061 | 641 | 0.28 nM | 0.9 nM | COc1ccc2c(c1S(=O)(=O)Nc1noc3cc(Cn4cccn4)c(F)c(OC)c13)OCCN2S(C)(=O)=O [Compound 121, N-(6-((1H-Pyrazol-1-yl)methyl)-5-fluoro-4-methoxybenzo[d]isoxazol-3-yl)-7-methoxy-4-(methylsulfonyl)-3,4-dihydro-2H-benzo[b][1,4]oxazine-8-sulfonamide] | –
